Measured values published in ChEMBL document CHEMBL5727501, “Bicyclic compounds and their use as antibacterial agents and β-lactamase inhibitors” (2020).

Legend:
[1] = (§1) Test for beta-lactamase Inhibitory Activity: he inhibitory activities of present compounds against various enzymes were measured by spectrophotometric assay using […] and using nitrocefin as a substrate [J. Antimicrob. Chemother., 28, pp 775-776 (1991)]. The concentration of inhibitor (IC50) which inhibits by 50% the reaction of hydrolysis of nitrocefin by the enzyme is determined.
[2] = as §1; remark: listed apart in the source

SMILES: CC(=O)NNC(=O)[C@@H]1CC[C@@H]2CN1C(=O)N2OS(=O)(=O)O
- IC50 [1]: 8 nM
- IC50 [2]: 91 nM
